Experimental data reported in patent US8193179B2, “3-amino-6-(1-amino-ethyl)-tetrahydropyran derivatives” (Actelion Pharmaceuticals, Ltd, priority 2007, dated 2012).
Values after ≈ are worked out from the molar mass of the structure shown. Where two headings read alike, the source gives them in different places.

Tests used:
Type in all cases: cell-based
P. aeruginosa A1124 = assay: MIC by microdilution in cation-adjusted Mueller-Hinton Broth, P. aeruginosa A1124; settings: strain A1124, test medium pH 7.2-7.3; for MIC: Pseudomonas aeruginosa
Protocol: (§1) These assays have been performed following the description given in “Methods for dilution Antimicrobial Susceptibility Tests for Bacteria that Grow Aerobically, 4th ed.; Approved standard: NCCLS Document M7-A4; National Committee for Clinical Laboratory Standards: Villanova, Pa., USA, 1997”. Minimal inhibitory concentrations (MICs; mg/l) were determined in cation-adjusted Mueller-Hinton Broth (BBL) by a microdilution method following NCCLS guidelines (National Committee for Clinical Laboratory Standards. Methods for Dilution Antimicrobial Susceptibility). The pH of the test medium was 7.2-7.3.

S. aureus A798 = assay: MIC by microdilution in cation-adjusted Mueller-Hinton Broth, S. aureus A798; settings: strain A798, test medium pH 7.2-7.3; for MIC: Staphylococcus aureus
Protocol: as §1

A. baumanii T6474 = assay: MIC by microdilution in cation-adjusted Mueller-Hinton Broth, A. baumanii T6474; settings: strain T6474, test medium pH 7.2-7.3; for MIC: Acinetobacter baumannii
Protocol: as §1

[1] = read-out: MIC P. aeruginosa A1124 (further typical results, comparison with WO 2006/032466)
[2] = read-out: MIC P. aeruginosa A1124

Row | SMILES | MIC (P. aeruginosa A1124; [1]) [µg/mL] | MIC (S. aureus A798) [µg/mL] | MIC (P. aeruginosa A1124; [2]) [µg/mL] | MIC (A. baumanii T6474) [µg/mL] | also measured
1 | COc1ccc2nccc(CC(N)[C@@H]3CC[C@@H](NCc4ccc5c(n4)NC(=O)CS5)CO3)c2c1 (mixture of isomers) [Example 4, 6-({(3R,6S)-6-[(1RS)-1-amino-2-(6-methoxy-quinolin-4-yl)-ethyl]-tetrahydro-pyran-3-ylamino}-methyl)-4H-pyrido[3,2-b][1,4]thiazin-3-one] | 8 | – | – | – | –
2 | COc1ccc2ncc(F)c(CC(N)[C@@H]3CC[C@@H](NCc4ccc5c(n4)NC(=O)CO5)CO3)c2n1 (mixture of isomers) [Example 15, 6-({(3R,6S)-6-[(1RS)-1-amino-2-(3-fluoro-6-methoxy-[1,5]naphthyridin-4-yl)-ethyl]tetrahydro-pyran-3-ylamino}-methyl)-4H-pyrido[3,2-b][1,4]oxazin-3-one] | – | ≤ 0.031 | 0.125 | ≤ 0.031 | –
3 | NC(Cc1ccnc2ccc(F)cc12)[C@@H]1CC[C@@H](NC/C=C/c2cc(F)ccc2F)CO1 (mixture of isomers) [Example 3, {(3R,6S)-6-[(1RS)-1-amino-2-(6-fluoro-quinolin-4-yl)-ethyl]-tetrahydro-pyran-3-yl}-[(E)-3-(2,5-difluoro-phenyl)-allyl]-amine] | – | 0.25 | 0.5 | 0.5 | –
4 | COc1ccc2nccc(C[C@H](N)[C@@H]3CC[C@@H](NCc4ccc5c(n4)NC(=O)CS5)CO3)c2n1 [Example 8, 6-({(3R,6S)-6-[(1S)-1-amino-2-(6-methoxy-[1,5]naphthyridin-4-yl)-ethyl]-tetrahydro-pyran-3-ylamino}-methyl)-4H-pyrido[3,2-b][1,4]thiazin-3-one] | 2 (≈ 4.16 µM) | – | – | – | –
5 | COc1ccc2nccc(C[C@H](N)[C@@H]3CC[C@@H](NCc4ccc(C)c(F)c4)CO3)c2n1 [Example 19] | – | – | – | – | MIC S. aureus A798 (S. aureus A798): ≦0.031 mg/l; MIC P. aeruginosa A1124 (P. aeruginosa A1124): 2 µg/mL (≈ 4.71 µM); MIC A. baumanii T6474 (A. baumanii T6474): 0.5 µg/mL (≈ 1.18 µM)
